As a reminder, the EC50 is the concentration at which the effect is half-maximal.

Where two headings read alike, the source gives them in different places.

Drawing on US20100249071A1, “Modulators of S1P and Methods of Making And Using” (Exelixis, Inc., priority 2009, published 2010), this text covers EC50 for 14 molecules.

The target in test [1] is T1, hS1PR5 (hEdg8) membrane protein (Homo sapiens, UniProt Q9H228).
T1 construct: expressed in transfected cells; host or cells: CHO
The test can be described thus: hS1P5R GTPγS binding assay (Assay 4). In kind it is biochemical. The procedure:
The hS1PR5 GTPγS binding assay was carried out at room temperature in 96-well non-binding surface assay plates. The reaction in each well contained 5 μg hS1PR5 (hEdg8) membrane protein from CHO cells expressing hS1PR5, 30 μM GDP, 0.1 nM [^35S]GTPγS, 0.25% fatty acid free BSA, and serially-diluted Compound of the Invention in 200 μL assay buffer (25 mM Tris-HCl PH 7.9, 100 mM NaCl, 3 mM MgCl2, and 0.2 mM EGTA). After one hour of incubation, 0.9 mg of WGA (Wheat Germ Agglutinin) SPA beads in 50 μL of assay buffer was added to each well. The SPA beads were spun down after an additional one hour incubation. The radioactivity of the bound GTPγS was counted by reading the assay plate using a MicroBeta.
(GTPγS is a poorly hydrolysed GTP analogue; its binding reports G protein activation.)

The target in test [2] is T2, hS1P1R (hEdg1) membrane protein (Homo sapiens, UniProt P21453).
T2 construct: purchased Lonza
The test can be described thus: hS1P1R GTPγS binding assay (Assay 3a). In kind it is biochemical. The procedure: Assay 3a: The hS1P1R GTPγS binding assay was carried out at room temperature in 96 well non-binding surface assay plates. The reaction in each well contained 4 μg hS1P1R (hEdg1) membrane protein (Lonza), 30 μM GDP, 0.1 nM [^35S]GTPγS, 0.25% fatty acid free BSA, and serially diluted hS1P1R agonist compound in 200 μL assay buffer (25 mM Tris-HCl PH 7.9, 100 mM NaCl, 3 mM MgCl2, and 0.2 mM EGTA). After one hour of incubation, 0.9 mg of WGA (Wheat Germ Agglutinin) SPA beads in 50 μL of assay buffer was added to each well. The SPA beads were spun down after an additional one hour incubation. The radioactivity of the bound GTPγS was counted by reading the assay plate using a MicroBeta.

In another test the target is T3, S1P1 (Homo sapiens, UniProt P21453).
T3 construct: host or cells: U2OS
Briefly: Tango β-arrestin recruitment assay in U2OS cells (Assay 2b). It is filed as cell-based. An excerpt:
(§1) For the Tango™ β-arrestin recruitment assay, the cytoplasmic C-terminus of S1P1 was tethered to the tTA transcriptional activator with a linker that contains a cleavage site for the N1a protease from tobacco etch virus (TEV protease). The C-terminus of the human β-arrestin2 protein was fused to TEV protease. Binding of an agonist recruits the βl -arrestin-TEV fusion protein to the receptor resulting in cleavage of the linker and released of tTA to enter the nucleus and subsequently activated a tTA-dependent luciferase reporter gene.
Assay 2b: Alternatively, U2OS cells expressing the reporter gene and S1P1 (Invitrogen) were added to the wells of a 384-well white opaque bottom assay plate (PerkinElmer) at […]. The cells were serum starved for 48 h in Freestyle medium (Invitrogen). Test compounds were tested at maximum concentrations of 1 μM for the agonist assay. Compounds were diluted in DMSO (10 concentration points, 3-fold each) and added to the assay plate at a 1% final DMSO concentration. The efficacy control was 1 μM S1P (Avanti). For each compound, there were duplicate assay plates and each assay plate had duplicate wells per concentration point. The plate was incubated overnight at 37° C. The GeneBLAzer β-lactamase assay reagent (Invitrogen) was added and the plates were incubated for an additional 2 h at room temperature. Fluorescence was measured using an EnVision plate reader (PerkinElmer, Waltham, Mass.) at an excitation wavelength of 409 nm and emission wavelengths of 460 nm and 530 nm. The emission intensity at each wavelength was background subtracted against wells containing medium only and the F460 nm/F530 nm ratio determined for each concentration of the test compounds. Percent activity was calculated as [(test compound ratio−DMSO ratio)/(positive control ratio−DMSO ratio)*100], where the positive control and DMSO ratios are from cells incubated with the efficacy control 1 μM S1P and 1% DMSO, respectively. The percent activities were plotted against compound concentration to determine EC50 using XLFit (IDBS).
On the technique in general: Activated receptors often draw arrestin, which recruitment assays turn into a signal.

The target in another test is T4, S1P3 (Homo sapiens, UniProt Q99500).
T4 construct: host or cells: HEK293 (transient transfection)
Briefly: S1P3 Tango β-arrestin recruitment assay in HEK293 cells (Assay 5). The conditions noted are these: read-out: Assay 5 EC50. In kind it is cell-based.
Source text: as §1
Assay 2a: Frozen HEK293 cells transiently transfected with receptor cDNAs for S1P1 (Invitrogen) are thawed and suspended in 10 mL of Pro293a-CDM culture medium (Invitrogen) supplemented with 4 mM L-Glutamine (Invitrogen), 1× Pen/Strep (100 units/mL penicillin and 100 μg/mL streptomycin, Invitrogen) and 0.1% fatty acid free BSA (Sigma-Aldrich). Cells are added to the wells of a 384-well white opaque bottom assay plate (PerkinElmer) at 3,000-6,000 cells per well and the plate is incubated for approximately 4 h in a 37° C. incubator. Test compounds are tested at maximum concentrations of 10 μM for the agonist assays. Compounds are diluted in DMSO (10 concentration points, 3-fold each) and added to the assay plate at a 1% final DMSO concentration. For each compound, there are duplicate assay plates and each assay plate has duplicate wells per concentration point. The plate is incubated at 37° C. for 30 min. The efficacy control is 5 μM S1P (Avanti). Following agonist addition, the assay plates are incubated in a 37° C. incubator for 16-18 h. Luciferase assay reagent is added and luminescence measured in an EnVision plate reader (PerkinElmer). To determine agonist activity, percent activity is calculated as [(test compound−background)/(positive control−background)*100], where background is the luminescence of the DMSO alone control and the positive control is the luminescence from cells incubated with the efficacy control 5 μM S1P. The percent activities are plotted against compound concentration to determine EC50 using XLFit (IDBS).
This assay was conducted using the procedures described in Assay 2a, replacing S1P1 with S1P3.

The mark [3] stands for this setting: * = rEC50 measured rather than EC50, read-out: Assay 2b rEC50 (relative EC50, cells marked *).

T4 sequence (P32121 whole entry): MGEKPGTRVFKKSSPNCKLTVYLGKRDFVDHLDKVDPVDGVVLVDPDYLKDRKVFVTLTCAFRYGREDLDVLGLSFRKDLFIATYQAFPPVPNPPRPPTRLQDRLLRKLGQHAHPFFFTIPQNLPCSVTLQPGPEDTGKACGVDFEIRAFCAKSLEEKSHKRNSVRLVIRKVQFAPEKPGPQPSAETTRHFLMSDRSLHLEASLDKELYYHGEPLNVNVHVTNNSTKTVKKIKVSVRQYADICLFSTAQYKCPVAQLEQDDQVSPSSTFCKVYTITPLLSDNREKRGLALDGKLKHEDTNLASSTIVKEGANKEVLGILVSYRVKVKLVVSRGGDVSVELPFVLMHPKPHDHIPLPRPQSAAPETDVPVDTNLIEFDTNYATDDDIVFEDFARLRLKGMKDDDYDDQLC
T4 sequence (Q99500 whole entry): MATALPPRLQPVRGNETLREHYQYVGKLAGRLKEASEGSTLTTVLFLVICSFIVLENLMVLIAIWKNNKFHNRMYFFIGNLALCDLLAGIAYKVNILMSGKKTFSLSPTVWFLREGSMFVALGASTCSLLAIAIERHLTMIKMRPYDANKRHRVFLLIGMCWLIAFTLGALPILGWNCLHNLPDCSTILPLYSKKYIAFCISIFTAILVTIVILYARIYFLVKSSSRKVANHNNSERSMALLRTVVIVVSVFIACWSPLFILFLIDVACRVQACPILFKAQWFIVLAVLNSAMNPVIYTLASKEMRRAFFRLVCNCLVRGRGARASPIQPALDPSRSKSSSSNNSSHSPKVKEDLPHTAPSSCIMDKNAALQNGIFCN
T3 sequence (P32121 whole entry): as the sequence (P32121 whole entry) above
T3 sequence (P21453 whole entry): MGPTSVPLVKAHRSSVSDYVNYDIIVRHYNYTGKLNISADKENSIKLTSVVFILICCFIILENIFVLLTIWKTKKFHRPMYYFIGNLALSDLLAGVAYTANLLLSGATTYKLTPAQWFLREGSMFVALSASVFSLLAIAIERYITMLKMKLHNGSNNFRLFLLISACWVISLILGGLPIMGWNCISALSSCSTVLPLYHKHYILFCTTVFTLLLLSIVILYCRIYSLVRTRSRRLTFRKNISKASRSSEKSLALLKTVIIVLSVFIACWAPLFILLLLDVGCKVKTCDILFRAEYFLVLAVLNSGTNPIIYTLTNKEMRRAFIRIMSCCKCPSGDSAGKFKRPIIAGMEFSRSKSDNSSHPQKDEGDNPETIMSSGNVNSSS
T2 sequence (P21453 whole entry): as above
T1 sequence (Q9H228 whole entry): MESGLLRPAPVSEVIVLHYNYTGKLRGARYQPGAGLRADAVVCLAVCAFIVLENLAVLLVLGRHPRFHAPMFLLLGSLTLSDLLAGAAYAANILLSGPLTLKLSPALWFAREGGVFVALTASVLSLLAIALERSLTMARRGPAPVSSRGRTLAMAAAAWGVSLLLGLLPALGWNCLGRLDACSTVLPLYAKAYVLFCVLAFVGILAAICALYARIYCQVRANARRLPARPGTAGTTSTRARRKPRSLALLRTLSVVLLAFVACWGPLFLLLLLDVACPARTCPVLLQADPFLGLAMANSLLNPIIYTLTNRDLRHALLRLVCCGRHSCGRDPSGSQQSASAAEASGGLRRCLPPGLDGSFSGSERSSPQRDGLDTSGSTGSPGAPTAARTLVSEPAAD

On to `CC(C)Nc1ncc(-c2nnc(-c3cc(F)c(OC[C@@H](N)CO)cc3Cl)s2)cn1` [Entry 90, (2S)-2-amino-3-{[5-chloro-2-fluoro-4-(5-{2-[(1-methylethyl)amino]pyrimidin-5-yl}-1,3,4-thiadiazol-2-yl)phenyl]oxy}propan-1-ol], for which the concentration for a half-maximal effect (EC50) in test [1] is 250 to 2800 nM; in test [2], 50 to 250 nM; at S1P1 (setting [3]) it was at most 10 nM; at S1P3, at most 250 nM.

Take `Cc1cc(NC(C)C)cc(-c2nnc(-c3cc(F)c(OC[C@H](N)[C@H](C)O)cc3Cl)s2)n1` [Entry 106, (2S,3S)-3-amino-4-(5-chloro-2-fluoro-4-{5-[6-methyl-4-(propan-2-ylamino)pyridin-2-yl]-1,3,4-thiadiazol-2-yl}phenoxy)butan-2-ol]: the results for the EC50 (in test [1]; at S1P1 (read-out: Assay 2b EC50); on S1P3) were 50 to 250 nM, 50 to 250 nM and above 250 nM, respectively.

As for `CC(C)Oc1ccc(-c2nnc(-c3cc(F)c(OC[C@H](N)COP(=O)(O)O)cc3Cl)s2)cc1C#N` [Entry 79, (2S)-2-amino-3-{[5-chloro-4-(5-{3-cyano-4-[(1-methylethyl)oxy]phenyl}-1,3,4-thiadiazol-2-yl)-2-fluorophenyl]oxy}propyl dihydrogen phosphate], the EC50 was at most 10 nM in test [1], at most 10 nM in test [2], at most 10 nM on S1P1 (read-out: Assay 2b EC50) and at most 250 nM on S1P3.

With `CC(C)Oc1ccc(-c2nnc(-c3cc(F)c(OC[C@H](N)[C@@H](C)OP(=O)(O)O)cc3Cl)s2)cc1C#N` [Entry 50, (1R,2S)-2-amino-3-{[5-chloro-4-(5-{3-cyano-4-[(1-methylethyl)oxy]phenyl}-1,3,4-thiadiazol-2-yl)-2-fluorophenyl]oxy}-1-methylpropyl dihydrogen phosphate], the EC50 is at most 10 nM in test [1], at most 10 nM in test [2], at most 10 nM at S1P1 (read-out: Assay 2b EC50) and at most 250 nM on S1P3.

As for `Cc1cc(-c2nnc(-c3cc(F)c(OC[C@H](N)[C@@H](C)O)cc3Cl)s2)cnc1NC(C)C` [Entry 65, (2R,3S)-3-amino-4-{[5-chloro-2-fluoro-4-(5-{5-methyl-6-[(1-methylethyl)amino]pyridin-3-yl}-1,3,4-thiadiazol-2-yl)phenyl]oxy}butan-2-ol], the concentration giving a half-maximal response (EC50) is 2800 to 10000 nM in test [1], 50 to 250 nM in test [2], 10 to 50 nM on S1P1 (read-out: Assay 2b EC50) and above 10000 nM on S1P3.

`CC(C)Nc1ccc(-c2nnc(-c3cc(F)c(OC[C@@H](N)[C@@H](C)O)cc3Cl)s2)cn1` [Entry 68, (2R,3R)-3-amino-4-{[5-chloro-2-fluoro-4-(5-{6-[(1-methylethyl)amino]pyridin-3-yl}-1,3,4-thiadiazol-2-yl)phenyl]oxy}butan-2-ol]: the EC50 in test [1] was 250 to 2800 nM; in test [2], 50 to 250 nM; at S1P1 (read-out: Assay 2b EC50) it was at most 10 nM; on S1P3, above 10000 nM.

Turning to `CC(C)Nc1ncc(-c2nnc(-c3cc(F)c(OC[C@H](N)[C@@H](C)O)cc3Cl)s2)cc1Cl` [Entry 48, (2R,3S)-3-amino-4-{[5-chloro-4-(5-{5-chloro-6-[(1-methylethyl)amino]pyridin-3-yl}-1,3,4-thiadiazol-2-yl)-2-fluorophenyl]oxy}butan-2-ol], the concentration for a half-maximal effect (EC50) is 250 to 2800 nM in test [1], 10 to 50 nM in test [2], at most 10 nM on S1P1 (read-out: Assay 2b EC50) and above 10000 nM at S1P3.

Consider `CC(C)Oc1ccc(-c2nnc(-c3cc(Cl)c(OC[C@H](N)CO)c(Cl)c3)s2)cc1Cl` [Entry 39, (2R)-2-amino-3-{[2,6-dichloro-4-(5-{3-chloro-4-[(1-methylethyl)oxy]phenyl}-1,3,4-thiadiazol-2-yl)phenyl]oxy}propan-1-ol], for which the 50% effective concentration (EC50) is 10 to 50 nM in test [1], at most 10 nM in test [2], 50 to 250 nM at S1P1 (read-out: Assay 2b EC50) and above 10000 nM at S1P3.

In the case of `Cc1nc(-c2nnc(-c3cc(F)c(OC[C@H](N)[C@H](C)O)cc3Cl)s2)ccc1NC(C)C` [Entry 105, (2S,3S)-3-amino-4-(5-chloro-2-fluoro-4-{5-[6-methyl-5-(propan-2-ylamino)pyridin-2-yl]-1,3,4-thiadiazol-2-yl}phenoxy)butan-2-ol], the EC50 was 50 to 250 nM in test [1], 50 to 250 nM at S1P1 (read-out: Assay 2b EC50) and above 250 nM on S1P3.

For `CC(C)Oc1ccc(-c2nnc(-c3ccc(OC[C@H](N)CO)cc3Cl)s2)cc1Cl` [Entry 34, (2R)-2-amino-3-{[3-chloro-4-(5-{3-chloro-4-[(1-methylethyl)oxy]phenyl}-1,3,4-thiadiazol-2-yl)phenyl]oxy}propan-1-ol], the EC50 in test [2] was 10 to 50 nM; on S1P1 (read-out: Assay 2b EC50) it was 50 to 250 nM; at S1P3, above 10000 nM.

For the molecule `CC(C)Oc1ccc(-c2nnc(-c3cc(F)c(OC[C@@H](N)CO)cc3Cl)s2)nc1Cl` [Entry 33, (2S)-2-amino-3-{[5-chloro-4-(5-{6-chloro-5-[(1-methylethyl)oxy]pyridin-2-yl}-1,3,4-thiadiazol-2-yl)-2-fluorophenyl]oxy}propan-1-ol], the concentration for a half-maximal effect (EC50) in test [2] is 10 to 50 nM; on S1P1 (read-out: Assay 2b EC50), at most 10 nM; on S1P3, at most 250 nM.

Regarding `Cc1cc(-c2nnc(-c3cc(F)c(OC[C@H](N)[C@H](C)OP(=O)(O)O)cc3Cl)s2)ccc1OC(C)C` [Entry 104, (1S,2S)-2-amino-3-{[5-chloro-2-fluoro-4-(5-{3-methyl-4-[(1-methylethyl)oxy]phenyl}-1,3,4-thiadiazol-2-yl)phenyl]oxy}-1-methylpropyl dihydrogen phosphate], the EC50 in test [1] is at most 10 nM; at S1P1 (setting [3]), at most 10 nM; on S1P3, above 250 nM.

Turning to `N[C@H](CO)COc1cc(Cl)c(-c2nnc(-c3cc(Cl)cc(Cl)c3)s2)cc1F` [Entry 92, (2R)-2-amino-3-({5-chloro-4-[5-(3,5-dichlorophenyl)-1,3,4-thiadiazol-2-yl]-2-fluorophenyl}oxy)propan-1-ol], the concentration giving a half-maximal response (EC50) in test [2] is 250 to 2800 nM; at S1P1 (read-out: Assay 2b EC50), 250 to 2800 nM; at S1P3, above 10000 nM.

Take `CC(C)Oc1ccc(-c2nnc(-c3cc(F)c(OCC(N)CO)cc3Cl)s2)nc1Cl` (stereo not shown) [Entry 14, 2-amino-3-{[5-chloro-4-(5-{6-chloro-5-[(1-methylethyl)oxy]pyridin-2-yl}-1,3,4-thiadiazol-2-yl)-2-fluorophenyl]oxy}propan-1-ol]: the EC50 in test [2] was 10 to 50 nM; at S1P1 (read-out: Assay 2b EC50) it was at most 10 nM; at S1P3, at most 250 nM.
